Experimental data reported in ChEMBL document CHEMBL2086272, “Anticlastogenic effect in human lymphocytes by the sodium salt of 3,4-secoisopimar-4(18),7,15-trien-3-oic acid” (J Nat Prod, 2012).
Activity calls are given as the source filed them. No cut-off for these calls is given here.

Experiments:
PBL [1] = experiment: Cytotoxicity in human PBL assessed as nuclear division index at 1930 uM pretreated before ethyl methanesulfonate (reference value: 1.63 +/- 0.11 nuclear division index); assay type: cell-based
PBL [2] = experiment: Antimutagenic activity in human PBL assessed as inhibition of ethyl methanesulfonate-induced frequency of micronucleus per 1000 binucleated lymphocyte cells at 0.3 uM pretreated before ethyl methanesulfonate by cytokinesis blocking technique (reference value: 3.33 +/- 0.88 micronucleus frequency/1000 binucleated lymphocyte cells); assay type: functional
PBL [3] = experiment: Antimutagenic activity in human PBL assessed as inhibition of colcemid-induced frequency of micronucleus per 1000 binucleated lymphocyte cells at 3.3 uM treated after treatment with colcemid by cytokinesis blocking technique (reference value: 3.33 +/- 0.33 micronucleus frequency/1000 binucleated lymphocyte cells); assay type: functional
PBL [4] = experiment: Antimutagenic activity in human PBL assessed as inhibition of colcemid-induced frequency of micronucleus per 1000 binucleated lymphocyte cells at 330 uM pretreated before colcemid by cytokinesis blocking technique (reference value: 3.33 +/- 0.88 micronucleus frequency/1000 binucleated lymphocyte cells); assay type: functional, cell-based
PBL [5] = experiment: Antimutagenic activity in human PBL assessed as inhibition of ethyl methanesulfonate-induced frequency of micronucleus per 1000 binucleated lymphocyte cells at 3.3 uM co-treated with ethyl methanesulfonate by cytokinesis blocking technique (reference value: 4.00 +/- 0.41 micronucleus frequency/1000 binucleated lymphocyte cells); assay type: functional
PBL [6] = experiment: Antimutagenic activity in human PBL assessed as inhibition of colcemid-induced frequency of micronucleus per 1000 binucleated lymphocyte cells at 0.054 uM treated after treatment with colcemid by cytokinesis blocking technique (reference value: 3.33 +/- 0.33 micronucleus frequency/1000 binucleated lymphocyte cells); assay type: functional
PBL [7] = experiment: Antimutagenic activity in human PBL assessed as inhibition of colcemid-induced frequency of micronucleus per 1000 binucleated lymphocyte cells at 3.3 uM co-treated with colcemid by cytokinesis blocking technique (reference value: 4.00 +/- 0.41 micronucleus frequency/1000 binucleated lymphocyte cells); assay type: functional
PBL [8] = experiment: Cytotoxicity in human PBL assessed as nuclear division index at 330 uM co-treated with colcemid (reference value: 1.65 +/- 0.06 nuclear division index); assay type: cell-based
PBL [9] = experiment: Cytotoxicity in human PBL assessed as nuclear division index at 0.3 uM treated after treatment with colcemid (reference value: 1.59 +/- 0.08 nuclear division index); assay type: cell-based
PBL [10] = experiment: Cytotoxicity in human PBL assessed as nuclear division index at 330 uM pretreated before ethyl methanesulfonate (reference value: 1.63 +/- 0.11 nuclear division index); assay type: cell-based
PBL [11] = experiment: Cytotoxicity in human PBL assessed as nuclear division index at 3.3 uM co-treated with colcemid (reference value: 1.65 +/- 0.06 nuclear division index); assay type: cell-based
PBL [12] = experiment: Antimutagenic activity in human PBL assessed as inhibition of colcemid-induced frequency of micronucleus per 1000 binucleated lymphocyte cells at 0.3 uM pretreated before colcemid by cytokinesis blocking technique (reference value: 3.33 +/- 0.88 micronucleus frequency/1000 binucleated lymphocyte cells); assay type: functional
PBL [13] = experiment: Cytotoxicity in human PBL assessed as nuclear division index at 33 uM treated after treatment with ethyl methanesulfonate (reference value: 1.59 +/- 0.08 nuclear division index); assay type: cell-based
PBL [14] = experiment: Antimutagenic activity in human PBL assessed as inhibition of ethyl methanesulfonate-induced frequency of micronucleus per 1000 binucleated lymphocyte cells at 3.3 uM pretreated before ethyl methanesulfonate by cytokinesis blocking technique (reference value: 3.33 +/- 0.88 micronucleus frequency/1000 binucleated lymphocyte cells); assay type: functional
PBL [15] = experiment: Cytotoxicity in human PBL assessed as nuclear division index at 3.3 uM co-treated with ethyl methanesulfonate (reference value: 1.65 +/- 0.06 nuclear division index); assay type: cell-based
PBL [16] = experiment: Cytotoxicity in human PBL assessed as nuclear division index at 0.3 to 330 uM; assay type: cell-based
PBL [17] = experiment: Cytotoxicity in human PBL assessed as nuclear division index at 330 uM treated after treatment with ethyl methanesulfonate (reference value: 1.59 +/- 0.08 nuclear division index); assay type: cell-based
PBL [18] = experiment: Cytotoxicity in human PBL assessed as nuclear division index at 33 uM co-treated with colcemid (reference value: 1.65 +/- 0.06 nuclear division index); assay type: cell-based
PBL [19] = experiment: Antimutagenic activity in human PBL assessed as inhibition of colcemid-induced frequency of micronucleus per 1000 binucleated lymphocyte cells at 0.3 uM treated after treatment with colcemid by cytokinesis blocking technique (reference value: 3.33 +/- 0.33 micronucleus frequency/1000 binucleated lymphocyte cells); assay type: functional
PBL [20] = experiment: Antimutagenic activity in human PBL assessed as inhibition of ethyl methanesulfonate-induced frequency of micronucleus per 1000 binucleated lymphocyte cells at 1930 uM co-treated with ethyl methanesulfonate by cytokinesis blocking technique (reference value: 4.00 +/- 0.41 micronucleus frequency/1000 binucleated lymphocyte cells); assay type: functional
PBL [21] = experiment: Cytotoxicity in human PBL assessed as nuclear division index at 3.3 uM pretreated before colcemid (reference value: 1.63 +/- 0.11 nuclear division index); assay type: cell-based
PBL [22] = experiment: Cytotoxicity in human PBL assessed as nuclear division index at 0.3 uM co-treated with ethyl methanesulfonate (reference value: 1.65 +/- 0.06 nuclear division index); assay type: cell-based
PBL [23] = experiment: Antimutagenic activity in human PBL assessed as inhibition of ethyl methanesulfonate-induced frequency of micronucleus per 1000 binucleated lymphocyte cells at 330 uM co-treated with ethyl methanesulfonate by cytokinesis blocking technique (reference value: 4.00 +/- 0.41 micronucleus frequency/1000 binucleated lymphocyte cells); assay type: functional
PBL [24] = experiment: Antimutagenic activity in human PBL assessed as inhibition of colcemid-induced frequency of micronucleus per 1000 binucleated lymphocyte cells at 3.3 uM pretreated before colcemid by cytokinesis blocking technique (reference value: 3.33 +/- 0.88 micronucleus frequency/1000 binucleated lymphocyte cells); assay type: functional
PBL [25] = experiment: Cytotoxicity in human PBL assessed as nuclear division index at 3.3 uM treated after treatment with ethyl methanesulfonate (reference value: 1.59 +/- 0.08 nuclear division index); assay type: cell-based
PBL [26] = experiment: Antimutagenic activity in human PBL assessed as inhibition of ethyl methanesulfonate-induced frequency of micronucleus per 1000 binucleated lymphocyte cells at 330 uM pretreated before ethyl methanesulfonate by cytokinesis blocking technique (reference value: 3.33 +/- 0.88 micronucleus frequency/1000 binucleated lymphocyte cells); assay type: functional
PBL [27] = experiment: Antimutagenic activity in human PBL assessed as inhibition of ethyl methanesulfonate-induced frequency of micronucleus per 1000 binucleated lymphocyte cells at 0.3 uM co-treated with ethyl methanesulfonate by cytokinesis blocking technique (reference value: 4.00 +/- 0.41 micronucleus frequency/1000 binucleated lymphocyte cells); assay type: functional
PBL [28] = experiment: Cytotoxicity in human PBL assessed as nuclear division index at 0.3 uM pretreated before colcemid (reference value: 1.63 +/- 0.11 nuclear division index); assay type: cell-based
PBL [29] = experiment: Antimutagenic activity in human PBL assessed as inhibition of colcemid-induced frequency of micronucleus per 1000 binucleated lymphocyte cells at 330 uM treated after treatment with colcemid by cytokinesis blocking technique (reference value: 3.33 +/- 0.33 micronucleus frequency/1000 binucleated lymphocyte cells); assay type: functional

SMILES: C=C[C@@]1(C)CC[C@H]2C(=CC[C@@H](C(=C)C)[C@]2(C)CCC(=O)[O-])C1.[Na+]
- Activity (PBL [1]): 1.53
- Activity (PBL [2]): 5.5
- Activity (PBL [3]): 12.25
- Activity (PBL [4]): inactive
- Activity (PBL [5]): 6.75
- Activity (PBL [6]): 12.25
- Activity (PBL [7]): 21.25
- Activity (PBL [8]): 1.41
- Activity (PBL [9]): 1.59
- Activity (PBL [10]): 1.28
- Activity (PBL [11]): 1.42
- Activity (PBL [12]): 19.25
- Activity (PBL [13]): 1.36
- Activity (PBL [14]): 5.75
- Activity (PBL [15]): 1.58
- Activity (PBL [16]): Non-toxic
- Activity (PBL [17]): 1.31
- Activity (PBL [18]): 1.51
- Activity (PBL [19]): 11.25
- Activity (PBL [20]): 15.8
- Activity (PBL [21]): 1.28
- Activity (PBL [22]): 1.38
- Activity (PBL [23]): 4.5
- Activity (PBL [24]): 18.42
- Activity (PBL [25]): 1.36
- Activity (PBL [26]): 4
- Activity (PBL [27]): 4
- Activity (PBL [28]): 1.44
- Activity (PBL [29]): 12.5
